Laboratory results: PubChem BioAssay AID192 (DTP/NCI, 2004)
Where “and” joins values, the source holds several entries; their conditions need not be identical. Equal values may be shown once. Inconclusive results and toxic doses are left out. How the source made its calls: active means survival T/C of 150% or more; inactive means T/C below 125% in these data.

System: BDF1 mice, B16 melanoma ip, median survival T/C
Test: NCI In Vivo Anticancer Drug Screen. Data for tumor model B16 Melanoma (intraperitoneal) in B6D2F1 (BDF1) mice
Conditions: endpoint: median survival time, higher = longer survival
Method in brief: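 Tumor-bearing mice received test compound or vehicle. Survival or tumor size was then measured in both groups. The treated-group figure was divided by the control-group figure.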

[1] = dose: 6.25 mg/kg/injection, schedule: Q01DX009 (ip), vehicle: Klucel (hydroxypropylcellulose) (HPC)
[2] = dose: 12.5 mg/kg/injection, schedule: Q01DX009 (ip), vehicle: Klucel (hydroxypropylcellulose) (HPC)
[3] = dose: 25.0 mg/kg/injection, schedule: Q01DX009 (ip), vehicle: Klucel (hydroxypropylcellulose) (HPC)
[4] = dose: 50.0 mg/kg/injection, schedule: Q01DX009 (ip), vehicle: Klucel (hydroxypropylcellulose) (HPC)
[5] = dose: 100.0 mg/kg/injection, schedule: Q01DX009 (ip), vehicle: Klucel (hydroxypropylcellulose) (HPC)
[6] = dose: 200.0 mg/kg/injection, schedule: Q01DX009 (ip), vehicle: Klucel (hydroxypropylcellulose) (HPC)
[7] = dose: 400.0 mg/kg/injection, schedule: Q01DX009 (ip), vehicle: Klucel (hydroxypropylcellulose) (HPC)
[8] = dose: 50.0 mg/kg/injection, schedule: Q01DX009 (ip), vehicle: saline with Tween-80
[9] = dose: 100.0 mg/kg/injection, schedule: Q01DX009 (ip), vehicle: saline with Tween-80
[10] = dose: 200.0 mg/kg/injection, schedule: Q01DX009 (ip), vehicle: saline with Tween-80
[11] = dose: 6.25 mg/kg/injection, schedule: Q01DX009 (ip), vehicle: saline with Tween-80
[12] = dose: 12.5 mg/kg/injection, schedule: Q01DX009 (ip), vehicle: saline with Tween-80
[13] = dose: 25.0 mg/kg/injection, schedule: Q01DX009 (ip), vehicle: saline with Tween-80
[14] = dose: 12.5 mg/kg/injection, schedule: Q01DX009 (ip), vehicle: saline
[15] = dose: 25.0 mg/kg/injection, schedule: Q01DX009 (ip), vehicle: saline
[16] = dose: 50.0 mg/kg/injection, schedule: Q01DX009 (ip), vehicle: saline
[17] = dose: 3.13 mg/kg/injection, schedule: Q01DX009 (ip), vehicle: saline with Tween-80
[18] = dose: 100.0 mg/kg/injection, schedule: Q04DX003 (ip), vehicle: Klucel (hydroxypropylcellulose) (HPC)
[19] = dose: 200.0 mg/kg/injection, schedule: Q04DX003 (ip), vehicle: Klucel (hydroxypropylcellulose) (HPC)
[20] = dose: 1.0 mg/kg/injection, schedule: Q01DX009 (ip), vehicle: saline

Measured: T/C

CCN(CC)CCCC(C)NC(C)CCCN(CC)CC (stereo unspecified)
inactive: [1] 101 % of control | dose: 6.25 mg/kg/injection, schedule: Q01DX009 (ip), vehicle: water 98 % of control | [2] 95 % of control | dose: 12.5 mg/kg/injection, schedule: Q01DX009 (ip), vehicle: water 100 % of control

CN(C)c1ccc2c(SCC(=O)OCC(=O)[C@@]3(O)CC[C@H]4[C@@H]5CCC6=CC(=O)C=C[C@]6(C)[C@H]5C(=O)C[C@@]43C)c3ccc(N(C)C)cc3nc2c1
inactive: [3] 101 % of control | [4] 96 % of control | [5] 101 % of control | [6] 113 % of control | [7] 98 % of control

COC(=O)c1cc(C)ccc1O
inactive: [8] 108 % of control | [9] 97 % of control | [10] 105 % of control

COc1ccc(OC)c(NC=O)c1
inactive: [11] 91 % of control | [12] 106 % of control | [13] 90 % of control and 97 % of control

O=[N+]([O-])O.O=[N+]([O-])O.[O]=[Zr]
inactive: dose: 12.5 mg/kg/injection, schedule: Q04DX003 (ip), vehicle: saline 97 % of control | dose: 25.0 mg/kg/injection, schedule: Q04DX003 (ip), vehicle: saline 90 % of control | dose: 50.0 mg/kg/injection, schedule: Q04DX003 (ip), vehicle: saline 95 % of control

CCCCCCCC(=O)CC(C)C
inactive: [5] 106 % of control | [6] 86 % of control

CCCC(=O)OCc1cc(=O)n(C)c2c3c4c(cc12)c(C)cc(=O)n4CO3
active: [4] 153 % of control
inactive: dose: 3.12 mg/kg/injection, schedule: Q01DX009 (ip), vehicle: Klucel (hydroxypropylcellulose) (HPC) 106 % of control | [1] 101 % of control and 110 % of control | [2] 120 % of control

Nc1ncnc2c1ncn2C1OCC(O)C1O (stereo unspecified)
inactive: [14] 101 % of control | [15] 108 % of control | [16] 116 % of control

CC1C(=O)OCC2=CCN3CCC(OC(=O)C(C)C1(C)O)C23 (stereo unspecified)
inactive: dose: 5.0 mg/kg/injection, schedule: Q01DX009 (ip), vehicle: saline 109 % of control | dose: 10.0 mg/kg/injection, schedule: Q01DX009 (ip), vehicle: saline 111 % of control | [14] 123 % of control | dose: 20.0 mg/kg/injection, schedule: Q01DX009 (ip), vehicle: saline 111 % of control | [15] 121 % of control | dose: 40.0 mg/kg/injection, schedule: Q01DX009 (ip), vehicle: saline 109 % of control | [16] 121 % of control

CC(=O)OCC1OC([Se][As](C)C)C(OC(C)=O)C(OC(C)=O)C1OC(C)=O (stereo unspecified)
inactive: [17] 88 % of control | [11] 100 % of control | [12] 90 % of control

O=C(Nc1ccccc1C(F)(F)F)c1ccc(Cl)cc1Cl
inactive: [9] 97 % of control | [10] 92 % of control

C=C1CCN(c2cccc(Cl)c2)C1=O
inactive: dose: 1.0 mg/kg/injection, schedule: Q01DX009 (ip), vehicle: saline + alcohol 107 % of control | dose: 2.0 mg/kg/injection, schedule: Q01DX009 (ip), vehicle: saline + alcohol 117 % of control | dose: 4.0 mg/kg/injection, schedule: Q01DX009 (ip), vehicle: saline + alcohol 101 % of control and 115 % of control | dose: 8.0 mg/kg/injection, schedule: Q01DX009 (ip), vehicle: saline + alcohol 101 % of control | dose: 16.0 mg/kg/injection, schedule: Q01DX009 (ip), vehicle: saline + alcohol 95 % of control | dose: 32.0 mg/kg/injection, schedule: Q01DX009 (ip), vehicle: saline + alcohol 96 % of control | dose: 64.0 mg/kg/injection, schedule: Q01DX009 (ip), vehicle: saline + alcohol 100 % of control

CCOC(=O)c1ccc(OC(=O)Nc2ccccc2OC)cc1
inactive: [9] 95 % of control | [10] 88 % of control

Cc1c2cc[n+](C)c(C)c2cc2c1[nH]c1ccccc12
inactive: dose: 10.0 mg/kg/injection, schedule: Q04DX003 (ip), vehicle: water 95 % of control | dose: 20.0 mg/kg/injection, schedule: Q04DX003 (ip), vehicle: water 92 % of control | dose: 40.0 mg/kg/injection, schedule: Q04DX003 (ip), vehicle: water 94 % of control

O=C1C(Cl)=C(Cl)C(=O)c2ccccc21
inactive: dose: 5.0 mg/kg/injection, schedule: Q01DX009 (ip), vehicle: saline with Tween-80 87 % of control | dose: 10.0 mg/kg/injection, schedule: Q01DX009 (ip), vehicle: saline with Tween-80 87 % of control

O=[N+]([O-])c1cccc2ncccc12
inactive: dose: 50.0 mg/kg/injection, schedule: Q04DX003 (ip), vehicle: Klucel (hydroxypropylcellulose) (HPC) 100 % of control | [18] 97 % of control | [19] 91 % of control

CC[CH2][Sn]([CH2]CC)([CH2]CC)[O][Sn]([CH2]CC)([CH2]CC)[CH2]CC
inactive: dose: 0.25 mg/kg/injection, schedule: Q01DX009 (ip), vehicle: saline 95 % of control | dose: 0.5 mg/kg/injection, schedule: Q01DX009 (ip), vehicle: saline 100 % of control | dose: 0.5 mg/kg/injection, schedule: Q04DX003 (ip), vehicle: saline 117 % of control | [20] 92 % of control | dose: 1.0 mg/kg/injection, schedule: Q04DX003 (ip), vehicle: saline 117 % of control

CCNC(C)(C)C(SSSC(c1cccs1)C(C)(C)NCC)c1cccs1 (stereo unspecified)
inactive: [3] 100 % of control | [4] 94 % of control

Cc1cc(C)c(NC(=O)Nc2ccccc2)c(C)c1
inactive: [3] 94 % of control | [4] 94 % of control | [5] 108 % of control

O=C1NC(Cc2ccc(N(CCCl)CCCl)cc2)C(=O)O1 (stereo unspecified)
active: dose: 3.0 mg/kg/injection, schedule: Q01DX009 (ip), vehicle: saline with Tween-80 157 % of control | [17] 197 % of control | dose: 6.0 mg/kg/injection, schedule: Q01DX009 (ip), vehicle: saline with Tween-80 203 % of control | [12] 155 % of control
inactive: dose: 0.1 mg/kg/injection, schedule: Q01DX009 (ip), vehicle: saline with Tween-80 94 % of control | dose: 0.2 mg/kg/injection, schedule: Q01DX009 (ip), vehicle: saline with Tween-80 102 % of control | dose: 0.4 mg/kg/injection, schedule: Q01DX009 (ip), vehicle: saline with Tween-80 105 % of control

CCOc1ccc(NC(=O)Nc2cccc(Cl)c2)cc1
inactive: [5] 100 % of control | [6] 93 % of control | [7] 96 % of control

S=C(S)Nc1cccc2ccccc12
inactive: [2] 96 % of control | [3] 93 % of control | [4] 103 % of control

CCCN1COC(OCC)C(C)(C)C1 (stereo unspecified)
inactive: [13] 104 % of control | [8] 100 % of control | [9] 98 % of control | [10] 100 % of control

C/C(=C\c1ccccc1Cl)[N+](=O)[O-]
inactive: dose: 37.5 mg/kg/injection, schedule: Q01DX009 (ip), vehicle: Klucel (hydroxypropylcellulose) (HPC) 96 % of control | dose: 75.0 mg/kg/injection, schedule: Q01DX009 (ip), vehicle: Klucel (hydroxypropylcellulose) (HPC) 96 % of control

O=C(O)/C=C/C(=O)Nc1ccccc1
inactive: [18] 106 % of control | [19] 96 % of control | dose: 400.0 mg/kg/injection, schedule: Q04DX003 (ip), vehicle: Klucel (hydroxypropylcellulose) (HPC) 103 % of control

CCN(CCCCO)CCc1c[nH]c2ccc(OC)cc12
inactive: dose: 9.3 mg/kg/injection, schedule: Q01DX009 (ip), vehicle: saline 105 % of control | dose: 18.75 mg/kg/injection, schedule: Q01DX009 (ip), vehicle: saline 90 % of control | dose: 37.5 mg/kg/injection, schedule: Q01DX009 (ip), vehicle: saline 97 % of control | dose: 75.0 mg/kg/injection, schedule: Q01DX009 (ip), vehicle: saline 110 % of control

O=C(O)C(=O)O.O=C([O-])C(=O)O.O=C([O-])C(=O)O.O=C([O-])C(=O)[O-].[K+].[U]
inactive: dose: 0.5 mg/kg/injection, schedule: Q01DX009 (ip), vehicle: Klucel (hydroxypropylcellulose) (HPC) 98 % of control | dose: 1.0 mg/kg/injection, schedule: Q01DX009 (ip), vehicle: Klucel (hydroxypropylcellulose) (HPC) 97 % of control | [20] 100 % of control | dose: 2.0 mg/kg/injection, schedule: Q01DX009 (ip), vehicle: saline 98 % of control
